One test deals with Escherichia coli. In words: Antibacterial activity against Escherichia coli after 18 hr by broth microdilution technique. Type of test: functional.
In the next test the test system is Aspergillus niger. As to the kind of experiment: Antifungal activity against Aspergillus niger after 18 hr by broth microdilution technique. Type of test: functional.
In test [1] the test system is Mycobacterium tuberculosis. In words: Antimycobacterial activity against Mycobacterium tuberculosis H37Rv after 21 days by broth dilution method. Type of test: functional. Conditions: 504 h. For orientation: In broth dilution the organism is exposed to a series of concentrations in liquid medium.
For a further test, the system named is Staphylococcus aureus. In words: Antibacterial activity against Staphylococcus aureus after 18 hr by broth microdilution technique. Type of test: functional.
For a further test, the system named is Vero. In words: Cytotoxicity against Chlorocebus aethiops (African green monkey) Vero cells after 72 hr by MTT assay. Type of test: cell-based. Particulars: Chlorocebus sabaeus. On the technique in general: Formazan colour is commonly taken as a measure of viable cells.
The subject of a further test is Klebsiella pneumoniae. In words: Antibacterial activity against Klebsiella pneumoniae after 18 hr by broth microdilution technique. Type of test: functional.
In the next test the test system is Saccharomyces cerevisiae. In words: Antifungal activity against Saccharomyces cerevisiae after 18 hr by broth microdilution technique. Type of test: functional.
Another test has as its system Pseudomonas aeruginosa. In words: Antibacterial activity against Pseudomonas aeruginosa after 18 hr by broth microdilution technique. Type of test: functional.
In another test the test system is Candida tropicalis. As to the kind of experiment: Antifungal activity against Candida tropicalis after 18 hr by broth microdilution technique. In kind it is functional.
The test system of the next test is A549. As to the kind of experiment: Cytotoxicity against Homo sapiens (human) A549 cells after 72 hr by MTT assay. Type of test: cell-based. Conditions: A549, 72 h.
The test system of the next test is Enterococcus faecalis. As to the kind of experiment: Antibacterial activity against Enterococcus faecalis after 18 hr by broth microdilution technique. In kind it is functional.
The test system of another test is Bacillus subtilis. In words: Antibacterial activity against Bacillus subtilis after 18 hr by broth microdilution technique. In kind it is functional.

pIC50: −log10 of the molar value. In brackets after ≈: the same amount, converted by molar mass. A value given as a limit tells only on which side of the number the result lay.

The MIC is the lowest concentration found to suppress growth. Low values mean greater potency, high ones weaker potency. The pIC50 is the IC50 on a negative log10 scale, so that one unit is a factor of ten. Lower therefore signals a large IC50.

Turning to `O=C(NNC(=O)c1ccc(F)c(C(F)(F)F)c1)c1ccc(-n2cccc2)cc1`, the MIC is 8 µg/mL (≈ 20.4 µM) with Escherichia coli; 8 µg/mL (≈ 20.4 µM) in the test with Aspergillus niger; 8 µg/mL (≈ 20.4 µM) in test [1]; 62.5 µg/mL (≈ 160 µM) against Staphylococcus aureus; greater than 500 µg/mL with Klebsiella pneumoniae; 16 µg/mL (≈ 40.9 µM) against Saccharomyces cerevisiae. The MIC in the test with Pseudomonas aeruginosa came out at 8 µg/mL (≈ 20.4 µM); with Candida tropicalis, 4 µg/mL (≈ 10.2 µM); against Enterococcus faecalis, 31.2 µg/mL (≈ 79.9 µM); in the test with Bacillus subtilis, 16 µg/mL (≈ 40.9 µM). Besides, the values for the negative-log IC50 (pIC50) in the test on Vero and with A549 were 3.71 and 3.70, respectively.

Consider `c1ccc(-c2nnc(-c3ccc(-n4cccc4)cc3)o2)cc1`, for which the MIC is 8 µg/mL (≈ 27.8 µM) against Escherichia coli; 31.2 µg/mL (≈ 109 µM) in the test on Aspergillus niger; 8 µg/mL (≈ 27.8 µM) in test [1]; 31.2 µg/mL (≈ 109 µM) against Staphylococcus aureus; greater than 500 µg/mL against Klebsiella pneumoniae; 31.2 µg/mL (≈ 109 µM) against Saccharomyces cerevisiae. Moreover, the MIC was found to be 8 µg/mL (≈ 27.8 µM) in the test on Pseudomonas aeruginosa, 31.2 µg/mL (≈ 109 µM) with Candida tropicalis, 31.2 µg/mL (≈ 109 µM) in the test with Enterococcus faecalis and 8 µg/mL (≈ 27.8 µM) against Bacillus subtilis. The pIC50 is 3.60 in the test on Vero and 3.59 in the test on A549.

For `Brc1ccccc1-c1nnc(-c2ccc(-n3cccc3)cc2)o1`, the MIC against Escherichia coli was 8 µg/mL (≈ 21.8 µM); against Aspergillus niger, 16 µg/mL (≈ 43.7 µM); in test [1], 8 µg/mL (≈ 21.8 µM); in the test with Staphylococcus aureus it was 31.2 µg/mL (≈ 85.3 µM); in the test with Klebsiella pneumoniae, greater than 500 µg/mL; against Saccharomyces cerevisiae, 31.2 µg/mL (≈ 85.3 µM). Also, the MIC against Pseudomonas aeruginosa stood at 8 µg/mL (≈ 21.8 µM); with Candida tropicalis it was 4 µg/mL (≈ 10.9 µM); against Enterococcus faecalis, 31.2 µg/mL (≈ 85.3 µM); in the test on Bacillus subtilis it was 8 µg/mL (≈ 21.8 µM). Further, the pIC50 in the test on Vero is 3.59; with A549, 3.60.

For the compound `Brc1ccc(-c2nnc(-c3ccc(-n4cccc4)cc3)o2)cc1`, the MIC in the test on Escherichia coli is 4 µg/mL (≈ 10.9 µM); in the test with Aspergillus niger, 8 µg/mL (≈ 21.8 µM); in [1], 2 µg/mL (≈ 5.46 µM); with Staphylococcus aureus, 31.2 µg/mL (≈ 85.3 µM); against Klebsiella pneumoniae, greater than 500 µg/mL; in the test on Saccharomyces cerevisiae it was 31.2 µg/mL (≈ 85.3 µM). For the same compound, the MIC is 8 µg/mL (≈ 21.8 µM) in the test on Pseudomonas aeruginosa, 4 µg/mL (≈ 10.9 µM) in the test on Candida tropicalis, 16 µg/mL (≈ 43.7 µM) in the test with Enterococcus faecalis and 4 µg/mL (≈ 10.9 µM) with Bacillus subtilis. Moreover, the pIC50 in the test with Vero and with A549 was 3.58 in each case.

As to `CC(=O)N1N=C(c2ccc(-n3c(C)ccc3C)cc2)OC1c1ccc(Br)cc1` (stereo not drawn), the MIC against Escherichia coli is 500 µg/mL (≈ 1140 µM); in the test on Aspergillus niger, 16 µg/mL (≈ 36.5 µM); in test [1], 8 µg/mL (≈ 18.3 µM); in the test on Staphylococcus aureus, 16 µg/mL (≈ 36.5 µM); with Klebsiella pneumoniae, 31.2 µg/mL (≈ 71.3 µM); with Saccharomyces cerevisiae, 31.2 µg/mL (≈ 71.3 µM). Besides, the MIC amounted to 500 µg/mL (≈ 1140 µM) against Pseudomonas aeruginosa, 8 µg/mL (≈ 18.3 µM) in the test with Candida tropicalis, 31.2 µg/mL (≈ 71.3 µM) in the test with Enterococcus faecalis and 8 µg/mL (≈ 18.3 µM) with Bacillus subtilis. Further, the pIC50 in the test with Vero and with A549 was 3.71 throughout.

Consider `CC(=O)N1N=C(c2ccc(-n3c(C)ccc3C)cc2)OC1c1c(Cl)cccc1Cl` (stereo not drawn), for which the MIC worked out at 16 µg/mL (≈ 37.4 µM) in the test with Escherichia coli; 4 µg/mL (≈ 9.34 µM) against Aspergillus niger; 2 µg/mL (≈ 4.67 µM) in [1]; 2 µg/mL (≈ 4.67 µM) against Staphylococcus aureus; 62.5 µg/mL (≈ 146 µM) against Klebsiella pneumoniae; 16 µg/mL (≈ 37.4 µM) against Saccharomyces cerevisiae. For the same compound, the MIC against Pseudomonas aeruginosa worked out at 8 µg/mL (≈ 18.7 µM); against Candida tropicalis it was 4 µg/mL (≈ 9.34 µM); in the test with Enterococcus faecalis it was 2 µg/mL (≈ 4.67 µM); with Bacillus subtilis it was 4 µg/mL (≈ 9.34 µM). For the same compound, the pIC50 in the test on Vero was 3.66; in the test with A549 it was 3.65.

Regarding `CC(=O)N1N=C(c2ccc(-n3c(C)ccc3C)cc2)OC1c1cccc([N+](=O)[O-])c1` (stereo not drawn), the MIC was found to be 62.5 µg/mL (≈ 155 µM) against Escherichia coli; 8 µg/mL (≈ 19.8 µM) in the test with Aspergillus niger; 31.2 µg/mL (≈ 77.3 µM) in test [1]; 31.2 µg/mL (≈ 77.3 µM) against Staphylococcus aureus; 62.5 µg/mL (≈ 155 µM) in the test with Klebsiella pneumoniae; 31.2 µg/mL (≈ 77.3 µM) with Saccharomyces cerevisiae. Besides, the MIC against Pseudomonas aeruginosa stood at 62.5 µg/mL (≈ 155 µM); in the test with Candida tropicalis, 8 µg/mL (≈ 19.8 µM); with Enterococcus faecalis it was 31.2 µg/mL (≈ 77.3 µM); in the test with Bacillus subtilis, 16 µg/mL (≈ 39.6 µM). For the same compound, the pIC50 with Vero is 3.72; in the test on A549 it was 3.71.

Regarding `CC(=O)N1N=C(c2ccc(-n3c(C)ccc3C)cc2)OC1c1ccccc1[N+](=O)[O-]` (stereo not drawn), the MIC is 500 µg/mL (≈ 1240 µM) in the test on Escherichia coli; 8 µg/mL (≈ 19.8 µM) with Aspergillus niger; 31.2 µg/mL (≈ 77.3 µM) in test [1]; 31.2 µg/mL (≈ 77.3 µM) against Staphylococcus aureus; 500 µg/mL (≈ 1240 µM) against Klebsiella pneumoniae; 31.2 µg/mL (≈ 77.3 µM) in the test with Saccharomyces cerevisiae. For the same compound, the MIC stood at 500 µg/mL (≈ 1240 µM) in the test with Pseudomonas aeruginosa, 8 µg/mL (≈ 19.8 µM) in the test on Candida tropicalis, 31.2 µg/mL (≈ 77.3 µM) against Enterococcus faecalis and 16 µg/mL (≈ 39.6 µM) in the test with Bacillus subtilis. Further, the results for the negative logarithm of the IC50 (pIC50) in the test on Vero and in the test with A549 were 3.76 and 3.74, respectively.

For the compound `CC(=O)N1N=C(c2ccc(-n3c(C)ccc3C)cc2)OC1c1ccc(O)cc1` (stereo not drawn), the MIC against Escherichia coli stood at 62.5 µg/mL (≈ 166 µM); in the test on Aspergillus niger, 8 µg/mL (≈ 21.3 µM); in [1] it was 16 µg/mL (≈ 42.6 µM); with Staphylococcus aureus, 31.2 µg/mL (≈ 83.2 µM); in the test with Klebsiella pneumoniae, 31.2 µg/mL (≈ 83.2 µM); against Saccharomyces cerevisiae it was 31.2 µg/mL (≈ 83.2 µM). The MIC with Pseudomonas aeruginosa stood at 62.5 µg/mL (≈ 166 µM); with Candida tropicalis, 8 µg/mL (≈ 21.3 µM); with Enterococcus faecalis, 31.2 µg/mL (≈ 83.2 µM); in the test with Bacillus subtilis, 16 µg/mL (≈ 42.6 µM). The figures for the pIC50 in the test with Vero and in the test with A549 were 3.73 and 3.72, respectively.

These data come from ChEMBL document CHEMBL3046206, “Synthesis of new 4-(2,5-dimethylpyrrol-1-yl)/4-pyrrol-1-yl benzoic acid hydrazide analogs and some derived oxadiazole, triazole and pyrrole ring systems: a novel class of potential antibacterial, antifungal and antitubercular agents” (Med Chem Res, 2013).
